Source: patent US10058562B2, “Methods of treatment of diseases” (Ampio Pharmaceuticals, Inc., priority 2012, dated 2018)
Like-named read-outs stand apart in the source and are kept apart here.

Assays:
endothelial cells = assay: TEER across endothelial cell monolayers on transwell inserts; conditions: barrier-enhancing concentrations, within minutes of exposure
Excerpt: TEER measured across monolayers of endothelial cells grown on transwell inserts. Higher resistance equals greater barrier integrity.

[1] = system: patients with diabetic macular edema (DME); type: in vivo, human
Excerpt: Included were patients with DME and a central subfield retinal thickness of 300 μm or greater. A total of 34 patients constituted the safety set population. The efficacy evaluable population (n=23) was composed of patients from the safety set who completed 80% or greater of study medications at 4 weeks of treatment. The primary endpoint was change in central subfield retinal thickness from baseline to 12 weeks of treatment, and the secondary endpoints were change from baseline in retinal volume and Early Treatment Diabetic Retinopathy Study (ETDRS) best corrected visual acuity (BCVA) at week 12 of treatment. […] All treatments were administered orally twice a day.

[2] = system: human renal glomerular microvascular endothelial cells; assay: ECIS resistance (Example 15); conditions: 1 μM
Procedure: Electrical resistance was measured using the electric cell-substrate impedance sensing (ECIS) system (ECISZθ, obtained from Applied Biophysics) with 8-well multiple electrode plates (8W10E). […] The fibronectin solution was removed, and 200 μl of EGM-2 culture medium (Lonza) was added to each well. The plates were connected to the ECISZθ system and were electrically stabilized. The EGM-2 medium was aspirated and replaced with 200 μl of EGM-2 culture medium containing 40,000 passage 6 cells per well. […] The EGM-2 medium was aspirated and replaced with 200 μl of fresh EGM-2 culture medium per well. […] The EGM-2 medium was aspirated and replaced with 200 μl of fresh EGM-2 culture medium without dexamethasone per well. […] Finally, the EGM-2 medium was aspirated and replaced with 200 μl of fresh EGM-2 culture medium without dexamethasone per well. […] Concentrated solutions of the test compounds in HBSS were prepared and placed in the incubator to equilibrate. […] ECIS (resistance) was monitored for 90 hours.

[3] = system: Primary human umbilical vein endothelial cells (HUVECs); assay: HUVEC cell proliferation (Celltiter 96 AQueous One); type: cell-based
Procedure: Primary human umbilical vein endothelial cells (HUVECs) and EGM-2 growth medium were obtained from Cambrex (Walkersville, Md.). The cells were passaged in medium supplemented with 2% fetal calf serum (FCS) in tissue culture flasks at 37° C. and 5% CO2. Subculturing was performed using trypsin when 60-80% confluence was obtained as specified by the supplier.
Cryopreserved ampoules of passage 2 HUVECs were thawed and plated in 96 well tissue culture plates at 5,000 cells/cm^2. […] . In short, medium was aspirated from each well and the cells were washed with 200 μl […] (HBSS) from Cambrex warmed to 37° C. 100 μl diluted celltiter solution (15 μl stock+85 μl EGM-2 containing 0.1% FCS) were added to each well and incubated for an additional 4 hours. Optical density was determined by microplate reader using a 530 nm filter after blank subtraction and data presented as OD±standard deviation. The final concentration of ethanol in the wells was less then 0.2% and had no effect on cell proliferation or viability.
All data are presented as representative experiments done in triplicate. […] P<0.05 was considered statistically significant.

HUVECs = assay: HUVEC tube formation assay; conditions: 18 hours
[4] = system: human umbilical vein endothelial cells; assay: TER of endothelial cell monolayers (Example 6); conditions: 1.0 μM
Procedure: (§1) Assays were also performed in the same manner using passage 8 human brain endothelial cells and passage 8 human umbilical vein endothelial cells.
(§2) An initial TER measurement was taken for each insert using EVOM^2 voltohmmeter connected to an STX100 electrode (both from World Precision Instruments). […] All data are presented as TER measurements/cm^2 of insert with TER of blank inserts subtracted.

[5] = system: human retinal endothelial cells; assay: Actin stress fiber formation, VEGF (Example 10); type: cell-based; conditions: for change of VEGF stress fiber pattern: 30 minutes before VEGF 25 ng/ml
Procedure: . […] To counter-stain for nuclei, 100 μl of a 3 μM DAPI (4,6-diamidino-2-phenylindole, dilactate (Invitrogen)) solution was added to each well. After 5 minutes, the cells were washed two times with 100 μl PBS.

[6] = system: human brain endothelial cells; assay: TER of endothelial cell monolayers (Example 6); conditions: 1.0 μM
Procedure: as §1, §2

[7] = system: human retinal endothelial cells; assay: TER of endothelial cell monolayers (Example 6); conditions: 1.0 μM
Procedure: as §1, §2

[8] = system: human renal glomerular microvascular endothelial cells; assay: ECIS resistance (Example 14); conditions: danazol 1 μM alone
Procedure: (§3) Electrical resistance was measured using the electric cell-substrate impedance sensing (ECIS) system (ECISZθ, obtained from Applied Biophysics) with 8-well multiple electrode plates (8W10E). […] The fibronectin solution was removed, and 400 μl of EGM-2 culture medium (Lonza) was added to each well. The plates were connected to the ECISZθ system and were electrically stabilized. The EGM-2 medium was aspirated and replaced with 200 μl of EGM-2 culture medium containing 100,000 cells per well. […] The EGM-2 medium was aspirated and replaced with 400 μl of fresh EGM-2 culture medium per well. […] Concentrated solutions of the test compounds in HBSS were prepared and placed in the incubator to equilibrate. […] ECIS (resistance) was monitored for 90 hours.

[9] = system: Retinal endothelial cells; assay: F-actin (phalloidin) staining of endothelial cells; conditions: barrier-enhancing concentrations
Excerpt: Retinal endothelial cells stained with rhodamine conjugated phalloidin.

[10] = system: human retinal endothelial cells; assay: Actin stress fiber formation, TNFα (Example 9); conditions: 30 minutes
Procedure: Then, the medium was removed and replaced with 200 μl of IMDM medium supplemented with 0.1% fetal bovine serum (all from Lonza), and the cells were cultured under these growth factor and serum starved conditions for one hour to suppress actin polymerization. […] Immediately following addition of these compounds, TNFα (final concentration of 50 ng/ml) was added. […] All wells were then washed two times with 100 μl PBS. The cells were permeabilized using a 0.1% Triton X-100 in PBS for 5 minutes. All wells were then washed two times with 100 μl PBS, and 50 μl of a 1:40 dilution of rhodamine-phalloidin (Invitrogen) in PBS was added to the cells to stain for F-actin and left on the cells for 20 minutes at room temperature. All wells were then washed two times with 100 μl PBS.

[11] = system: human retinal endothelial cells; assay: ECIS resistance (Example 14); conditions: for persistence of ECIS increase: danazol 1.0 μM, S1P 1 μM, alone or in combination
Procedure: as §3

[12] = system: human retinal endothelial cells; assay: Actin stress fiber formation (Example 13); conditions: for F-actin staining, danazol alone: 1 μM; for F-actin staining, agent alone: TNFα 1 ng/ml or S1P 1 μM alone, over the time course
[13] = system: human renal glomerular microvascular endothelial cells; assay: Actin stress fiber formation (Example 13); conditions: for F-actin staining, danazol alone: 1 μM; for F-actin staining, agent alone: TNFα 1 ng/ml or S1P 1 μM alone, over the time course

C#C[C@]1(O)CC[C@H]2[C@@H]3CCC4=Cc5oncc5C[C@]4(C)[C@H]3CC[C@@]21C [Danazol, 17α-pregna-2,4-dien-20-yno[2,3-d]-isoxazol-17β-ol]
endothelial barrier function (TEER) (endothelial cells): increases in endothelial barrier function
effect on retinal thickness versus baseline BMI ([1]; 10 mg dose): became less significant with increasing baseline BMI
effect on retinal thickness versus baseline BMI ([1]; 30 mg danazol dose): became more significant with increasing baseline BMI
patients with a clinically relevant change in OCT after 12 weeks of treatment ([1]; 30 mg danazol, placebo 2 of 7 patients): 6/7
Retinal volume compared with placebo ([1]; 15-mg group, P=0.05): decreased
subjects with a significant decrease in retinal thickness (more than 11%) at 12 weeks ([1]; DME patients, oral 15-mg dose (15 mg twice daily), 6 of 7 patients, placebo 29%): 86%
subjects with BCVA improvement of at least 1 category (ICD-9-CM vision loss) ([1]; all patients treated with danazol, placebo 14%): 47%
ocular hypertension ([1]; in vivo): No ocular hypertension was detected
treatment-related adverse events (number) ([1]; in vivo): Three
persistence of ECIS increase [2]: about 90 hours
start of ECIS increase compared to untreated cells ([2]; medium without dexamethasone): about 3 hours
OD (celltiter proliferation assay) ([3]; 24 hours, 10 μM, nil 0.414±0.06): 0.288±0.037
OD (celltiter proliferation assay) ([3]; 24 hours, 100 μM, nil 0.414±0.06): 0.162±0.017
OD (celltiter proliferation assay) ([3]; 48 hours, 1 μM, nil 0.629±0.095): 0.378±0.037
OD (celltiter proliferation assay) ([3]; 48 hours, 10 μM, nil 0.629±0.095): 0.241±0.012
OD (celltiter proliferation assay) ([3]; 48 hours, 100 μM, nil 0.629±0.095): 0.19±0.033
OD (celltiter proliferation assay) ([3]; 72 hours, 0.1 μM, nil 1.113±0.054): 0.798±0.037
OD (celltiter proliferation assay) ([3]; 72 hours, 1 μM, nil 1.113±0.054): 0.484±0.022
OD (celltiter proliferation assay) ([3]; 72 hours, 10 μM, nil 1.113±0.054): 0.229±0.016
OD (celltiter proliferation assay) ([3]; 72 hours, 100 μM, nil 1.113±0.054): 0.156±0.018
effect on tube formation (HUVECs; 1 μM): no effect
effect on tube formation (HUVECs; 10 μM): no effect
TER ([4]; 0 Hours, per cm^2 of insert, blank subtracted, None 82.3): 70.2
TER ([4]; 24 Hours, None 217.2): 246.0
TER ([4]; 48 Hours, None 276.3): 364.1
TER ([4]; 72 Hours, None 226.8): 270.7
TER ([4]; 144 Hours, None 227.3): 286.4
change of VEGF stress fiber pattern ([5]; 0.1 μM): made the stress fibers less pronounced and some diffuse staining appeared
change of VEGF stress fiber pattern ([5]; 1.0 μM): showed fewer thick stress fibers, but focal points were seen on contact surfaces
change of VEGF stress fiber pattern ([5]; 10.0 μM): showed strong stress fiber development with focal points
F-actin staining pattern ([5]; 10.0 μM, no VEGF): there was no longer any diffuse staining, and stress fiber development and focal points were seen
TER ([6]; 0 Hours, per cm^2 of insert, blank subtracted, None 41.4): 32.3
TER ([6]; 24 Hours, None 115.7): 139.9
TER ([6]; 48 Hours, None 176.3): 188.4
TER ([6]; 72 Hours, None 154.0): 149.5
TER ([6]; 144 Hours, None 151.5): 125.8
TER ([7]; 0 Hours, per cm^2 of insert, blank subtracted, None 32.3): 21.7
TER ([7]; 24 Hours, None 96.0): 132.3
TER ([7]; 48 Hours, None 144.4): 182.3
TER ([7]; 72 Hours, None 148.0): 217.7
TER ([7]; 144 Hours, None 219.7): 234.8
period of greatest ECIS increase [8]: 60 to 90 h
F-actin staining ([9]; within minutes of exposure): f-actin cortical ring formation
stress fiber formation upon stimulation ([9]; stimulation with TNF-a or thrombin): counteracted the formation of stress fibers
F-actin staining pattern ([10]; 10.0 μM): stress fibers with multiple focal points were detected
stress fiber development with TNFα ([10]; TNFα 50 ng/ml, danazol 0.1 μM or 10 μM, LY294002 10 μM): decreased the number of cells exhibiting stress fiber development with TNFα
start of ECIS increase compared to untreated cells, after treatment ([11]; 1.0 μM): 1.5 to 2.0 h
persistence of ECIS increase [11]: 5 h
F-actin staining, danazol alone ([12]; 15 minutes): perinuclear staining
F-actin staining, danazol alone ([12]; 3 hours): diffuse staining throughout the cells with ruffled edges on many of the cells
F-actin staining, danazol alone ([12]; 24 hours): staining similar to untreated controls
F-actin staining, danazol alone ([13]; 15 minutes): perinuclear staining
F-actin staining, danazol alone ([13]; 3 hours): diffuse staining throughout the cells with ruffled edges on many of the cells
F-actin staining, danazol alone ([13]; 24 hours): staining similar to untreated controls

TNFα
stress fiber development, stimulus alone ([10]; TNFα 50 ng/ml): led to strong stress fiber development with intensely staining focal points
F-actin staining, agent alone [12]: stress fibers were seen at all times
F-actin staining, agent alone [13]: stress fibers were seen at all times

CCCCCCCCCCCCC/C=C/[C@@H](O)[C@@H](N)COP(=O)(O)O [S1P, sphingosine-1 phosphate]
start of ECIS increase compared to untreated cells, after treatment ([11]; S1P 1 μM alone): ≤ 0.25 h
persistence of ECIS increase [11]: about 3 hours
F-actin staining, agent alone [12]: showed actin cortical rings
F-actin staining, agent alone [13]: showed actin cortical rings

VEGF
stress fiber development, stimulus alone ([5]; VEGF 25 ng/ml, 30 minutes): strong stress fiber development
